Calls of active or inactive are those of the source. The calls are words filed in the database; no cut-off is given here.
Experiments:
[1] = biological target: Angiotensin II receptor type-1 (Oryctolagus cuniculus) (UniProt P34976); experiment: Inhibition of angiotensin II induced contraction in rabbit aortic ring, activity is expressed as IC50
Rattus norvegicus [2] = experiment: The compound was tested for antihypertensive activity in Renal Hypertensive Rats(RHR) at 30 mg/Kg dose after oral administration; inactive; format: functional, organism-based
Rattus norvegicus [3] = experiment: The compound was tested for antihypertensive activity in Renal Hypertensive Rats(RHR) at 10 mg/Kg dose after oral administration; format: functional
Monkey [4] = experiment: blood pressure determined at 10 mg/kg in salt-deplete Normotensive Monkeys; format: functional, Cercopithecidae
Monkey [5] = experiment: Minimum blood pressure was determined at 10 mg/kg in salt-deplete Normotensive Monkeys; format: functional, Cercopithecidae
Monkey [6] = experiment: Baseline blood pressure was determined at 10 mg/kg in salt-deplete Normotensive Monkeys; format: functional, Cercopithecidae
[7] = biological target: T1, Angiotensin II receptor (AT-1) type-1 (Rattus norvegicus, UniProt P29089+P25095); experiment: Binding affinity expressed as IC50 to the Angiotensin II receptor, type 1, from rat liver membrane
T1 sequence (P29089 whole entry): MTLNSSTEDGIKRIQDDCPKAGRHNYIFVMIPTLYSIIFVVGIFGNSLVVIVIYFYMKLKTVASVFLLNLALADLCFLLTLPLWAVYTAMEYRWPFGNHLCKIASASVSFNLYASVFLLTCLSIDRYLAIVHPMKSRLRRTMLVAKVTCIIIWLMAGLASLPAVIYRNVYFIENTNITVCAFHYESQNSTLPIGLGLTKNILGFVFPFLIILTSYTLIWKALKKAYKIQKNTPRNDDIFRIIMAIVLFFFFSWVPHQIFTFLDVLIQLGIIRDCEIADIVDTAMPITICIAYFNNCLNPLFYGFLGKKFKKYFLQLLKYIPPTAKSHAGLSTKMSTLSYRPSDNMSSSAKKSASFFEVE
T1 sequence (P25095 whole entry): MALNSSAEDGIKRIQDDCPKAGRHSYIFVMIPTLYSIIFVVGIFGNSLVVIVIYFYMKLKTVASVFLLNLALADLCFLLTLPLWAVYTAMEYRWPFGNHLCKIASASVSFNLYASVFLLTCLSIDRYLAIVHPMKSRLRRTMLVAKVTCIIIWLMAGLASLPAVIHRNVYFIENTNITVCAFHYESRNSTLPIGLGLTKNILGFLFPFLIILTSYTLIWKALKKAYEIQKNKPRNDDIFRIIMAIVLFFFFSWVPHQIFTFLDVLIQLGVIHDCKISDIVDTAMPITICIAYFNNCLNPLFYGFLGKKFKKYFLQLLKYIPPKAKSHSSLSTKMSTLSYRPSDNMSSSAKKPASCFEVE

[8] = biological target: Angiotensin II receptor (AT-1) type-1 (Rattus norvegicus) (UniProt P29089+P25095); experiment: Antihypertensive activity in renal hypertensive rats (RHR) at 30 mg/Kg dose after oral administration; format: functional, organism-based
Monkey [9] = experiment: Blood pressure determined at 10 mg/kg in salt-deplete Normotensive Monkeys; format: functional, Cercopithecidae
Rattus norvegicus [10] = experiment: The compound was tested for antihypertensive activity in Renal Hypertensive Rats(RHR) at following doses after oral administration. of 10 mg/kg; format: functional

Angiotensin II receptor type-1 (Oryctolagus cuniculus), sequence (P34976 whole entry, looked up): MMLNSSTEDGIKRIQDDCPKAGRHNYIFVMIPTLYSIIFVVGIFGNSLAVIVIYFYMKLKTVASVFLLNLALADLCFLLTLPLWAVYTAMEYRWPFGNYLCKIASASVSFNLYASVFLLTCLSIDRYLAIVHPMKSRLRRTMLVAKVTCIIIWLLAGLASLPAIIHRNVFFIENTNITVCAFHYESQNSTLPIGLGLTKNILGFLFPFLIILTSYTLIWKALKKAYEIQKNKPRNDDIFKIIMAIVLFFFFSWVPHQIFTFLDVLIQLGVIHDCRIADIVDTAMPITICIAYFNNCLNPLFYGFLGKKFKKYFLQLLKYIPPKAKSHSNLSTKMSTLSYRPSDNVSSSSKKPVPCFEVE

SMILES	IC50 [1] [nM]	IC50 [7] [nM]	Maximum blood pressure change [8] [%]	other results
CCCCc1ncc(/C=C2\C(=O)NC(=O)N2CCCC)n1Cc1ccc(C(=O)O)cc1	44			Max (Rattus norvegicus [2]): inactive
CCCCc1ncc(/C=C2/C(=O)N(CCCC)C(=O)N2Cc2csc(C)n2)n1Cc1ccc(C(=O)OC)cc1	350	3.8	-40	Max (Rattus norvegicus [3]): -25%; Blood pressure (Monkey [4]): 88 mmHg; Blood pressure (Monkey [5]): 74 mmHg; Blood pressure (Monkey [6]): 101 mmHg
CCCCc1ncc(/C=C2/C(=O)N(CCCC)C(=O)N2Cc2csc(N)n2)n1Cc1ccc(C(=O)OC)cc1	290	1.2	-37	Max (Rattus norvegicus [3]): -39%
CCCCc1ncc(/C=C2\C(=O)NC(=O)N2Cc2cccs2)n1Cc1ccc(C(=O)O)cc1		2.6		Max (Rattus norvegicus [2]): inactive
CCCCc1ncc(/C=C2/C(=O)N(CCCC)C(=O)N2Cc2csc(C)n2)n1Cc1ccc(C(=O)O)cc1Cl				Blood pressure (Monkey [9]): 85 mmHg; Blood pressure (Monkey [5]): 80 mmHg; Blood pressure (Monkey [6]): 100 mmHg
CCCCc1ncc(/C=C2/C(=O)NC(=O)N2CCCC)n1Cc1ccc(-c2ccccc2-c2nn[nH]n2)cc1	40	1.4	0	
CCCCc1ncc(/C=C2/C(=O)N(CCCC)C(=O)N2Cc2csc(C)n2)n1Cc1ccc(C(=O)O)cc1	2.6	1.2	-34	
CCCCc1ncc(/C=C2/C(=O)NC(=O)N2CCCC)n1Cc1ccc(-c2nn[nH]n2)cc1	40	7.1	0	
CCCCc1ncc(/C=C2/C(=O)N(CCCC)C(=O)N2CCCC)n1Cc1ccc(C(=O)OC)cc1	460	8.5	-27	
CCCCc1ncc(/C=C2/C(=O)NC(=O)N2CCCC)n1Cc1ccc(C(=O)O)cc1	28	2.8	-17	
CCCCc1ncc(/C=C2/C(=O)N(CCCC)C(=O)N2Cc2csc(C)c2)n1Cc1ccc(C(=O)O)cc1	9.2	0.7	-23	Max (Rattus norvegicus [10]): -28%
CCCCc1ncc(/C=C2/C(=O)N(CCCC)C(=O)N2Cc2cccs2)n1Cc1ccc(C(=O)OC)cc1	370	3.4	-28	
CCCCc1ncc(/C=C2/C(=O)N(CCCC)C(=O)N2Cc2cc(C)cs2)n1Cc1ccc(C(=O)O)cc1	21	1.5	-16	
CCCCCCN1C(=O)/C(=C/c2cnc(CCCC)n2Cc2ccc(C(=O)OC)cc2)N(Cc2csc(C)n2)C1=O	> 100	5.3	-34	
CCCCc1ncc(/C=C2/C(=O)N(CCCC)C(=O)N2Cc2cccs2)n1Cc1ccc(C(=O)O)cc1	13	0.7	-28	
CCCCc1ncc(/C=C2/C(=O)NC(=O)N2Cc2ccc(Cl)cc2)n1Cc1ccc(C(=O)O)cc1	28	3	-17	
CCCCc1ncc(/C=C2/C(=O)N(CCCC)C(=O)N2Cc2csc(N)n2)n1Cc1ccc(C(=O)O)cc1	2.9	0.6		Max [8]: inactive
CCCCc1ncc(/C=C2/C(=O)N(CCCC)C(=O)N2Cc2ccccn2)n1Cc1ccc(C(=O)OC)cc1	490	5.8	-20	
CCCCc1ncc(/C=C2/C(=O)N(CCCC)C(=O)N2CCCC)n1Cc1ccc(C(=O)O)cc1	14	1.3	-45	Max (Rattus norvegicus [3]): -21%
CCCCc1ncc(/C=C2/C(=O)N(CCCC)C(=O)N2Cc2ccsc2)n1Cc1ccc(C(=O)O)cc1	10	0.9	-42	Max (Rattus norvegicus [10]): -28%
CCCCc1ncc(/C=C2/C(=O)NC(=O)N2CCCC)n1Cc1ccc(C(=O)OC)cc1	30	3.5	-11	
